From patent US20240166627A1, “Terpyridinedione compound or salt thereof, and preparation method and application thereof” (SHENZHEN SALUBRIS PHARMACEUTICALS CO., LTD., priority 2021, published 2024)

System: production of TNFα in U937
Assay: Releasing TNFα from U937 induced by LPS
Format: cell-based
Details: Homo sapiens, U-937; PMA-differentiated U937, LPS 100 ng/ml, 4 h; read-out: IC50 value that the compound inhibits the production of TNFα
From the text: Cytokine regulation in human monocytes has shown that the p38 pathway is the key to the biosynthesis of a plurality of pro-inflammatory cytokines including TNFα, IL-1β and IL-6. Therefore, the inhibition of the p38 MAPK pathway is to reduce inflammatory response by reducing the biosynthesis of the pro-inflammatory cytokines. […] This is a reflection of the effect of the compound in the present invention to facilitate reduction of inflammation, which is useful in the treatment of various diseases, including chronic inflammatory diseases, acute inflammatory diseases, or self-inflammatory diseases. The potency and efficacy of the p38 inhibitor in blocking cytokine production are evaluated using a human U937 cell line.
A 1640 medium with an article number being A10491-01, Gibco; penicillin-streptomycin with an article number being 15140-122, Gibco; fetal bovine serum with an article number being 10099-141C, Gibco; PBS with an article number being 10010-031, Gibco; LPS with an article number being L2880, Sigma; PMA with an article number being P1585, Sigma; dimethyl sulfoxide with an article number being D8418-1L, Sigma; and a TNFα kit with an article number being K151QWD-4, MSD.
A 96-well plate with an article number being 3599, Corning; a plate-vibrating device with an article number being QB-9002, QILINBEIER; a centrifuge with an article number being 5810R, Eppendorf; a carbon dioxide incubator with an article number being 371, Thermo; a counter with an article number being C10281, Gibco; a microscope with an article number being CKX41, OLYMPUS; and an MSD plate reader with an article number being 1201 MESO SECTOR 600, MSD.
U937, ATCC with an article number being CRL-1593.2.
About 2 mg of a drug is weighted; a mother solution is prepared to 10 mM (which is calculated by free alkali) by means of DMSO; and the mother solution is diluted 10-fold to 1 mM, and then is successively diluted 4-fold to 250 μM, 62.5 μM, 15.6 μM, 3.9 μM, 0.97 μM, 0.24 μM, and 0.061 μM. The above series of diluted DMSO drugs is diluted 20-fold as working solutions by using media.
At Day 0, 10000/well inoculation is performed, stimulation is performed for 48 h with 20 ng/ml of PMA, and culture is performed at 37° C., 5% CO2. • At Day 2, 1. Supernatant is removed from differentiated U937, cleaning is performed once with PBS, and 96 μl of the 1640 medium is added. • 2. 2 μl of the compound containing (DMSO with a final concentration being 0.1%), and culture is performed for 30 min at 37° C., 5% CO2. • 3. 2 μl of LPS (a final concentration being 100 ng/ml) is added, cells are stimulated, and culture is performed for 4 h at 37° C., 5% CO2. • 4. Centrifugation is performed, supernatant is taken, and content of TNFα in the supernatant is determined through ELISA.
The content of TNFα corresponding to each well is calculated by using a standard curve in the kit.
The compound IC50 is calculated by using a GraphPad nonlinear fitting formula, and for an experimental result, refer to Table 1.

Row | SMILES | IC50
1 | Cc1cnc(-n2ccc(C)c(C(C)(C)O)c2=O)cc1-n1c(C)cc(OCc2ncc(F)cc2F)c(Cl)c1=O [Embodiment 29, 3″-chloro-4″-((3,5-difluoropyridine-2-yl)methoxy)-3-(2-hydroxypropane-2-yl)-4,5′,6″-trimethyl-2H, 2″H-[1,2′:4′,1″-terpyridine]-2,2″-diketone] | 15.1 nM
2 | Cc1cnc(-n2cccc(C(C)(C)O)c2=O)cc1-n1c(C)cc(OCc2cccnc2)c(Cl)c1=O [Embodiment 30, 3″-chloro-3-(2-hydroxypropane-2-yl)-5′,6″-dimethyl-4″-((pyridin-3-yl)methoxy)-2H,2″H-[1,2′:4′,1″-terpyridine]-2,2″-diketone] | 11.9 nM
3 | Cc1cnc(-n2cccc(C(C)(C)O)c2=O)cc1-n1c(C)cc(OCc2ccc(F)cc2F)c(Cl)c1=O [Embodiment 4, 3″-chloro-4″-((2,4-difluorobenzyl)oxy)-3-(2-hydroxypropane-2-yl)-5′,6″-dimethyl-2H,2″H-[1,2′:4′,1″-terpyridine]-2,2″-diketone] | 2.05 nM
4 | Cc1cnc(-n2cccc(C(C)(C)O)c2=O)cc1-n1c(C)cc(OCc2ncccc2Cl)c(Cl)c1=O [Embodiment 19, 3″-chloro-4″-((3-chloropyridine-2-yl)methoxy)-3-(2-hydroxypropane-2-yl)-5′,6″-dimethyl-2H,2″H-[1,2′:4′,1″-terpyridine]-2,2″-diketone] | 8.11 nM
5 | Cc1cnc(-n2cccc(C(C)(C)O)c2=O)cc1-n1c(C)cc(OCc2c(F)cccc2C#N)c(Cl)c1=O [Embodiment 13, 2-(((3″-chloro-3-(2-hydroxypropane-2-yl)-5′,6″-dimethyl-2,2″-dione-2H,2″H-[1,2′:4′,1″-terpyridine]-4″-yl)oxy)methyl)-3-fluorobenzonitrile] | 4.26 nM
6 | Cc1cc(C(C)(C)O)c(=O)n(-c2cc(-n3c(C)cc(OCc4ncc(F)cc4F)c(Cl)c3=O)c(C)cn2)c1 [Embodiment 35, 3″-chloro-4″-((3,5-difluoropyridine-2-yl)methoxy)-3-(2-hydroxypropane-2-yl)-5,5′,6″-trimethyl-2H, 2″H-[1,2′:4′,1″-terpyridine]-2,2″-diketone] | 24.3 nM
7 | Cc1cnc(-n2cccc(C(C)(C)O)c2=O)cc1-n1c(C)cc(OCc2ncc(C3CC3)cc2F)c(Cl)c1=O [Embodiment 27, 3″-chloro-4″-((3-fluoro-5-cyclopropylpyridine-2-yl)methoxy)-3-(2-hydroxypropane-2-yl)-5′,6″-dimethyl-2H,2″H-[1,2′:4′,1″-terpyridine]-2,2″-diketone] | 16.6 nM
8 | Cc1cnc(-n2cccc(C(C)(C)O)c2=O)cc1-n1c(C)cc(OCc2ccc(F)cn2)c(Cl)c1=O [Embodiment 21, 3″-chloro-4″-((5-fluoropyridine-2-yl)methoxy)-3-(2-hydroxypropane-2-yl)-5′,6″-dimethyl-2H,2″H-[1,2′:4′,1″-terpyridine]-2,2″-diketone] | 7.11 nM
9 | Cc1cnc(-n2cccc(C(C)(C)O)c2=O)cc1-n1c(C)cc(OCc2c(F)cccc2F)c(Cl)c1=O [Embodiment 15, 3″-chloro-4″-((2,6-difluorophenyl)methoxy)-3-(2-hydroxypropane-2-yl)-5′,6″-dimethyl-2H,2″H-[1,2′:4′,1″-terpyridine]-2,2″-diketone] | 1.6 nM
10 | Cc1cnc(-n2cccc(C(C)(C)O)c2=O)cc1-n1c(C)cc(OCc2cc(F)ccc2F)c(Cl)c1=O [Embodiment 18, 3″-chloro-4″-((2,5-difluorobenzyl)oxy)-3-(2-hydroxypropane-2-yl)-5′,6″-dimethyl-2H,2″H-[1,2′:4′,1″-terpyridine]-2,2″-diketone] | 2.39 nM
11 | Cc1cnc(-n2cccc(C(C)(C)O)c2=O)cc1-n1c(C)cc(OCc2ccc(Cl)cc2F)c(Cl)c1=O [Embodiment 9, 3″-chloro-4″-((4-chloro-2-fluorobenzyl)oxy)-3-(2-hydroxypropane-2-yl)-5′,6″-dimethyl-2H,2″H-[1,2′:4′,1″-terpyridine]-2,2″-diketone] | 2.72 nM
12 | Cc1cnc(-n2cccc(C(C)(C)O)c2=O)cc1-n1c(C)cc(OCc2ccc(C#N)cc2F)c(Cl)c1=O [Embodiment 8, 4-(((3″-chloro-3-(2-hydroxypropane-2-yl)-5′,6″-dimethyl-2,2″-dioxo-2H,2″H-[1,2 2′:4′,1″-terpyridine]-4″-yl)oxy)methyl)-3-fluorobenzonitrile] | 14.4 nM

Continued by falling IC50, values first:

Row | IC50 | SMILES
13 | 11.2 nM | Cc1cnc(-n2cccc(C(C)O)c2=O)cc1-n1c(C)cc(OCc2ncc(F)cc2F)c(Cl)c1=O (stereo not drawn) [Embodiment 24, 3″-chloro-4″-((3,5-difluoropyridine-2-yl)methoxy)-3-(1-hydroxyethyl)-5′,6″-dimethyl-2H,2″H-[1,2′:4 1″-terpyridine]-2,2″-diketone]
14 | 8.21 nM | Cc1cnc(-n2cccc(C(C)(C)O)c2=O)cc1-n1c(C)cc(OCc2ccc(Cl)cn2)c(Cl)c1=O [Embodiment 14, 3″-chloro-4″-((5-chloropyridine-2-yl)methoxy)-3-(2-hydroxypropane-2-yl)-5′,6″-dimethyl-2H,2″H-[1,2′:4′,1″-terpyridine]-2,2″-diketone]
15 | 6.06 nM | Cc1cnc(-n2cccc(C(C)(C)O)c2=O)cc1-n1c(C)cc(OCc2ncc(F)cc2Cl)c(Cl)c1=O [Embodiment 25, 3″-chloro-4″-((3-chloro-5-fluoropyridine-2-yl)methoxy)-3-(2-hydroxypropane-2-yl)-5′,6″-dimethyl-2H,2″H-[1,2′:4′,1″-terpyridine]-2,2″-diketone]
16 | 5.53 nM | Cc1cnc(-n2cccc(C(C)(C)O)c2=O)cc1-n1c(C)cc(OCc2ccc(F)c(F)c2)c(Cl)c1=O [Embodiment 23, 3″-chloro-4″-((3,4-difluorobenzyl)oxy)-3-(2-hydroxypropane-2-yl)-5′,6″-dimethyl-2H,2″H-[1,2′:4′,1″-terpyridine]-2,2″-diketone]
17 | 5.09 nM | Cc1cnc(-n2cccc(C(C)(C)O)c2=O)cc1-n1c(C)cc(OCc2ncccc2C)c(Cl)c1=O [Embodiment 12, 3″-chloro-4″-((3-methylpyridin-2-yl)methoxy)-3-(2-hydroxypropane-2-yl)-5′,6″-dimethyl-2H,2″H-[1,2′:4′,1″-terpyridine]-2,2″-diketone]
18 | 4.05 nM | Cc1cnc(-n2cccc(C(C)(C)O)c2=O)cc1-n1c(C)cc(OCc2ncc(Cl)cc2F)c(Cl)c1=O [Embodiment 5, 3″-chloro-4″-((3-fluoro-5-chloropyridine-2-yl)methoxy)-3-(2-hydroxypropane-2-yl)-5′,6″-dimethyl-2H,2″H-[1,2′:4′,1″-terpyridine]-2,2″-diketone]
